From US20230374177A1, “CYTOSOLIC MICROPARTICLES, PHAGOCYTIC CELLS COMPRISING THE SAME, AND METHODS FOR TREATING DISEASE COMPRISING THE SAME” (Florida State University Research Foundation, Inc., priority 2022, published 2023) come the findings set out here.

In this assay the test system is RAW264.7 macrophages. The experiment in a line: Effects of factors on phagosomal rupture at 22° C. The conditions noted are these: 22° C. cold shock; chloroquine 100 μM 30 min, tetrandrine 5 μM 30 min, colchicine 5 μM 3 h, LLOMe 1 mM 30 min, hypotonic shock 0.6×PBS. Format: cell-based.

Experimental: Incubation of macrophages with microparticles. […] A prewarmed suspension of macrophages in the complete medium (3.5×10^5 cells/mL, 1 mL, 37° C.) supplemented with LPS (1 μg/mL) was added into a chamber and incubated (5% CO2, 37° C.) for the specified period.
Control. […] After 3 h, the complete medium was replaced with PBS (1 mL, 22° C.) and maintained for 2 min before being imaged.
Hypotonic shock. 0.6×PBS was prepared by mixing PBS with H2O (volume ratio=6:4). […] After 3 h, the complete medium was replaced with the 0.6×PBS (1 mL, 22° C.) and maintained for 2 min before being imaged.
Chloroquine. […] After 2.5 h, chloroquine (10 mM in DMEM) was added to the culture to reach 100 μM and further incubated (5% CO2, 37° C.) for 30 min. The complete medium was replaced with PBS (1 mL, 22° C.) and maintained for 2 min before being imaged.
Tetrandrine. […] After 2.5 h, tetrandrine (5 mM in DMSO) was added to the culture to reach 5 μM and further incubated (5% CO2, 37° C.) for 30 min. The complete medium was replaced with PBS (1 mL, 22° C.) and maintained for 2 min before being imaged.
Colchicine. […] After 3 h, colchicine (2.5 mM in DMEM) was added to the culture at 5 μM and further incubated (5% CO2, 37° C.) for 3 h. The complete medium was replaced with PBS (1 mL, 22° C.) and maintained for 2 min before being imaged.
LLOMe. […] After 2.5 h, LLOMe (10 mM in DMEM) was added to the culture at 1 mM and further incubated (5% CO2, 37° C.) for 30 min. The complete medium was replaced with PBS (1 mL, 22° C.) and maintained for 2 min before being imaged.
For each factor, an experiment was conducted to study its effect. […] Exposure of the macrophages to each factor was conducted either during or before the cold shock.

Turning to `CCN(CC)CCCC(C)Nc1ccnc2cc(Cl)ccc12` (stereo not drawn) [Chloroquine], the “effect on percentage of phagosomal rupture at 22° C. compared to the control” value is recorded as “did not induce a significant effect”. As for `COc1cc2c(c(OC)c1OC)-c1ccc(OC)c(=O)cc1[C@@H](NC(C)=O)CC2` [Colchicine], the “effect on percentage of phagosomal rupture at 22° C. compared to the control” value is reported as “insignificant”. Under `COC(=O)[C@H](CC(C)C)NC(=O)[C@@H](N)CC(C)C.Cl` [LLOMe, L-Leucyl-L-leucine methyl ester hydrochloride] stands “significantly increased”.
